Data set [1] can be described thus: Drug releasing characteristics of the active ingredient from the scaffold. The class given is physicochemical. As to the method:
To evaluate the drug releasing characteristics of the active ingredient included in the scaffold, the scaffold for hard tissue regeneration (containing Quercetein by 200 μm/scaffold) prepared in Example 1 was dipped in body fluid like PBS (phosphate buffered saline) or de-ionized water in a 37° C. shaker. Sampling of the solution was performed hourly and the concentration of Quercetein released in the solution was measured. Quercetein is a hydrophobic material, so that it is very difficult to detect the concentration by dissolving. To evaluate the drug releasing activity in a solution where the active material is dissolved, the experiment was equally performed with ethanol, the dissolving solvent.
The following experiment was performed by the same manner as described in Example <1-1> except that the scaffold for hard tissue regeneration (containing Genistein by 200 μm/scaffold) prepared in Example 3 instead of the scaffold for hard tissue regeneration (containing Quercetein by 200 μm/scaffold) prepared in Example 1.

For another data set, the system named is MC3T3-E1 cells. The experiment in a line: Osteoblast proliferation activity, MTS assay, drug in medium. The class given is cell-based. As to the method: MC3T3-E1 cells (MC3T3-E1 Subclone 4, ATCC CRL-2593, obtained from ATCC) were cultured in α-MEM (α-Minimum Essential Medium, GIBCO) supplemented with FBS (Fetal Bovine Serum) and penicillin/streptomycin under the standard culture condition (37° C., 5% CO2). When the cells were grown to 70˜80% confluency, the cells were trypsinized. Then, the cells were collected by centrifugation.
The collected MC3T3-E1 cells were seeded at the density of 1.0×10^4 cells, followed by standard culture for 2 hours. The medium containing Quercetein at the concentrations of 0, 1, 10, 50, 100, and 200 μm was added thereto.
To observe the metabolic activity of the seeded MC3T3-E1 cells, colorimetric 3-(4,5-dimethylthiazole-2-yl)-5-(3-carboxymethoxyphenol)-2-(4-sulfophenyl)-2H-tetrazolium (MTS) assay (CellTiter 96® AQeous One solution Cell Proliferation Assay, Promega) was performed according to the manufacturer's instruction. The MTS tetrazolium compound is converted biologically and dissolved in the tissue culture medium by the cells into a formazan product displaying highest absorbance at 490 nm.
The following experiment was performed by the same manner as described in Experimental Example <2-1> except that Genistein was used instead of Quercetein.

For data set [2], the system named is RAW 264.7 cells, the multinuclear osteoclasts treated with RANKL. The experiment in a line: Osteoclast proliferation activity, drug in medium. The class given is cell-based. The settings on record: for inhibition of osteoclast proliferation, ranking among Quercetein, Genistein, Alendronate: same dose; for proliferation of osteoclasts: compared with the case not treated, 1 μM or 200 μM.

A short description of data set [3]: Solubility of the active ingredient. The data set is classed as physicochemical.
Where [4] appears, read: determined from the proliferation of osteoblasts.

Molecules are shown by their SMILES.

As for `O=c1c(-c2ccc(O)cc2)coc2cc(O)cc(O)c12` [Genistein], the Genistein released in data set [1] (from scaffold of Example 3 (200 μm/scaffold), ethanol, early 5 days) came to 100%; in data set [1] (from scaffold of Example 3, de-ionized water and PBS, over 55 days, without early acute release), 60%. Moreover, the proliferation of osteoblasts result in the data set with MC3T3-E1 cells (1 μM, day 3 and day 5) is listed as “promoted the proliferation of osteoblasts”; in the data set on MC3T3-E1 cells (concentration increased from 1 to 10 μM, vs non-treated group), “increased”; with MC3T3-E1 cells (concentration over 10 μM), “rather inhibited”. In the data set on MC3T3-E1 cells (1 μM, day 3 and day 5), the “promoting effect on osteoblast proliferation relative to Quercetein” value was “greater than that of Quercetein”. In addition, in the data set on MC3T3-E1 cells (setting [4]), the “most preferable concentration (osteoblast proliferation)” value amounted to 1 µM. Moreover, the “preferable concentration (osteoblast proliferation)” value with MC3T3-E1 cells (setting [4]) is given as 1˜10 μM. Also, the “inhibition of osteoclast proliferation, ranking among Quercetein, Genistein, Alendronate” value in data set [2] (1 μM) is given as “most excellent in inhibiting the proliferation of osteoclasts”. The proliferation of osteoclasts result in data set [2] was “significantly inhibited”. Further, the “solubility in an aqueous solution” value in data set [3] is “low”. The “solubility in ethanol compared with that of Quercetein” value in data set [3] (ethanol, from comparison of release results) is listed as “even higher”.

For the molecule `O=c1c(O)c(-c2ccc(O)c(O)c2)oc2cc(O)cc(O)c12` [Quercetein], the Quercetein released in data set [1] (from scaffold of Example 1 (200 μm/scaffold), ethanol, 37° C. shaker, over 40 days, without early acute release) is 100%; in data set [1] (from scaffold of Example 1, de-ionized water and PBS, 37° C., early 20 days), 10%; in data set [1] (from scaffold of Example 1, de-ionized water and PBS, 37° C., over 68 days), “approximately 50%”; in data set [1] (from scaffold, de-ionized water and PBS, over 60 days) it was 50%. Further, the proliferation of osteoblasts result is recorded as “promoted the proliferation of osteoblasts” in the data set with MC3T3-E1 cells (1 μM, day 3 and day 5); “increased Quercetein dose-dependently” with MC3T3-E1 cells (concentration increased from 1 to 200 μM, vs non-treated group, day 1, 3, 5). Also, the “effect on the proliferation of osteoblasts” value in the data set on MC3T3-E1 cells (200 μM, day 3 and day 5, comparison with Alendronate) was “increased the proliferation significantly”. The “preferable concentration (osteoblast proliferation)” value in the data set with MC3T3-E1 cells (setting [4]) was 1˜200 μM. Also, the “inhibition of osteoclast proliferation, ranking among Quercetein, Genistein, Alendronate” value in data set [2] (200 μM) is reported as “most excellent in inhibiting the proliferation of osteoclasts”. In addition, the proliferation of osteoclasts result in data set [2] is on record as “significantly inhibited”. Besides, in data set [3], the “solubility in an aqueous solution” value is given as “low”.

Values taken from US9889234B2, “Scaffold for hard tissue regeneration containing active ingredient for treating osteoporosis and preparing method thereof” (KOREA INSTITUTE OF MACHINERY AND MATERIALS, priority 2014, dated 2018).
